Experimental data reported in patent US7253286B2, “Nitrogen-containing aromatic derivatives” (Eisai Co., Ltd, priority 2000, dated 2007).

System: Human Umbilical Vein Endothelial Cells (HUVECs)
Assay: Inhibition against sandwich tube formation by vascular endothelial cells in response to stimulation by VEGF
Assay type: cell-based
Conditions: HUVEC in collagen gel sandwich, stimulation by VEGF (25 ng/ml VEGF and 10 ng/ml EGF), 4th day, total tube length, read-out: IC50 (concentration required for 50% inhibition of tube formation)
Procedure: Inhibition Against Sandwich Tube Formation by Vascular Endothelial Cells in Response to Stimulation by Angiogenic Factor
Human Umbilical Vein Endothelial Cells (HUVECS) were isolated by the same method as in Pharmacological Test Example 1, and were cultured in a 5% CO2 incubator (37° C.) using EGM-2 medium (purchased from Clonetics Corp.) until the cells reached confluency.
An ice-cooled mixture of collagen: 5× RPMI 1640: reconstitution buffer (all purchased from Nitta Gelatin, Inc.) at 7:2:1 was dispensed at 0.4 ml into each well of a 24-well plate, and then stationed for 40 minutes in a 5% CO2 incubator (37° C.) for gelling. The HUVECs were recovered using trypsin-EDTA and then suspended in human endothelial serum free medium (SFM, purchased from GIBCO BRL) containing added angiogenic factors [20 ng/ml FGF2 (purchased from GIBCO BRL) and 10 ng/ml EGF (purchased from GIBCO BRL), or 25 ng/ml VEGF (purchased from Wako Pure Chemical Industries Co., Ltd.) and 10 ng/ml EGF, or 30 ng/ml HGF (purchased from R&D Co.) and 10 ng/ml EGF], and the cell suspension was added at 0.4 ml to each well (with the cell counts differing slightly according to the HUVEC lot), and cultured overnight in a 5% CO2 incubator (37° C.). On the following day, the medium on the upper layer was aspirated off, and then 0.4 ml of an ice-cooled mixture of collagen: 5× RPMI 1640: reconstitution buffer (all purchased from Nitta Gelatin, Inc.) at 7:2:1 was superposed into each well prior to stationing for 4 hours in a 5% CO2 incubator (37° C.) for gelling. After adding 1.5 ml of an SFM solution containing each of the aforementioned angiogenic factors and a diluted test substance onto the upper layer, culturing was performed in a 5% CO2 incubator (37° C.). Upon aspirating off the culture supernatant in each well on the 4th day after addition of the test substance, 0.4 ml of a 3.3 mg/ml MTT solution dissolved in PBS (purchased from Sigma Corp.) was added to each well and culturing was performed for approximately 2 hours in a 5% CO2 incubator (37° C.). The tubes formed in the collagen gel of each well were stained by the MTT, the tube images were loaded into a computer (Macintosh), and the total length of the tubes was determined by image analysis software “MacScope” (purchased from Mitani Corp.). The ratio of the total length of the tubes formed in the well containing the test substance with respect to the total length of the tubes formed in the well containing no test substance was expressed as a percentage, and the concentration of each test substance required for 50% inhibition of tube formation (IC50) was determined from the ratio value.

Compound | IC50
COc1cc2nccc(Oc3ccc(NC(=O)NC4CC4)c(Cl)c3)c2cc1C(=O)Nc1ncc[nH]1 [Example 405, N6-(1H-2-Imidazolyl)-4-(3-chloro-4-(((cyclopropylamino)carbonyl)amino)phenoxy)-7-methoxy-6-quinolinecarboxamide] | 28 nM
COc1cc2nccc(Oc3ccc(NC(=O)NC4CC4)c(Cl)c3)c2cc1C(=O)Nc1cccnc1 [Example 408, N6-(3-Pyridyl)-4-(3-chloro-4-(((cyclopropylamino)carbonyl)amino)phenoxy)-7-methoxy-6-quinolinecarboxamide] | 39 nM
CCN(CC)CCCOc1cc2nccc(Oc3ccc(NC(=O)NC4CC4)c(Cl)c3)c2cc1C#N [Example 419, N-(2-Chloro-4-((6-cyano-7-(3-(diethylamino)propoxy)-4-quinolyl)oxy)phenyl)-N′-cyclopropylurea] | 10 nM
COC(=O)c1cc2c(Oc3ccc(N(C)C(=O)Nc4ccc(F)cc4)cc3)ccnc2cc1OC [Example 433, Methyl 4-(4-(((4-fluoroanilino)carbonyl)(methyl)amino)phenoxy)-7-methoxy-6-quinoline carboxylate] | 5.6 nM
COCCNC(=O)c1cc2c(Oc3ccc(N(C)C(=O)Nc4ccc(F)cc4)cc3)ccnc2cc1OC [Example 436, N6-(2-Methoxyethyl)-4-(4-(((4-fluoroanilino)carbonyl)(methyl)amino)phenoxy)-7-methoxy-6-quinolinecarboxamide] | 22 nM
COc1cc2nccc(Oc3ccc(NC(=O)NC4CC4)c(Cl)c3)c2cc1C(=O)NCCC#N [Example 440, N6-(2-Cyanoethyl)-4-(3-chloro-4-(((cyclopropylamino)carbonyl)amino)phenoxy)-7-methoxy-6-quinolinecarboxamide] | 1.4 nM
CNC(=O)c1cc2c(Oc3ccc(NC(=O)NC4CC4)c(Cl)c3)ccnc2cc1OC [Example 442, N6-Methyl-4-(3-chloro-4-(((cyclopropylamino)carbonyl)amino)phenoxy)-7-methoxy-6-quinolinecarboxamide] | 7.2 nM
CCCNC(=O)c1cc2c(Oc3ccc(NC(=O)NC4CC4)c(Cl)c3)ccnc2cc1OC [Example 444, N6-Propyl-4-(3-chloro-4-(((cyclopropylamino)carbonyl)amino)phenoxy)-7-methoxy-6-quinolinecarboxamide] | 5.5 nM
C#CCNC(=O)c1cc2c(Oc3ccc(NC(=O)NC4CC4)c(Cl)c3)ccnc2cc1OC [Example 445, N6-Propargyl-4-(3-chloro-4-(((cyclopropylamino)carbonyl)amino)phenoxy)-7-methoxy-6-quinolinecarboxamide] | 6.2 nM
COc1cc2nccc(Oc3ccc(NC(=O)NC4CC4)c(Cl)c3)c2cc1C(=O)NCC1CC1 [Example 446, N6-Cyclopropylmethyl-4-(3-chloro-4-(((cyclopropylamino)carbonyl)amino)phenoxy)-7-methoxy-6-quinolinecarboxamide] | 4 nM
COc1cc2nccc(Oc3ccc(NC(=O)NC4CC4)c(Cl)c3)c2cc1C(=O)NC[C@H]1CCCO1 [Example 450, N6-((2R)Tetrahydro-2-furanylmethyl)-4-(3-chloro-4-(((cyclopropylamino)carbonyl)amino)phenoxy)-7-methoxy-6-quinolinecarboxamide] | 4.5 nM
N#Cc1cc2c(Oc3ccc(NC(=O)Nc4ccc(F)cc4)cc3)ccnc2cc1OC[C@H](O)CN1CCCC1 [Example 454, N-(4-((6-Cyano-7-(((2R)-2-hydroxy-3-(1-pyrrolidino)propyl)oxy)-4-quinolyl)oxy)phenyl)-N′-(4-fluorophenyl)urea] | 3.7 nM
CCN(CC)C[C@@H](O)COc1cc2nccc(Oc3ccc(NC(=O)Nc4ccc(F)cc4)cc3)c2cc1C#N [Example 455, N-(4-((6-Cyano-7-(((2R)-3-(diethylamino)-2-hydroxypropyl)oxy)-4-quinolyl)oxy)phenyl)-N′-(4-fluorophenyl)urea] | 7.8 nM
COc1cc2nccc(Oc3ccc(NC(=O)NC4CC4)c(C)c3C)c2cc1C(N)=O [Example 490, N-[4-(6-Carbamoyl-7-methoxy-4-quinolyl)oxy-2,3-dimethylphenyl]-N′-cyclopropylurea] | 26 nM
